Measurements taken from US11708367B2, “Compounds for the treatment of kinase-dependent disorders” (Exelixis, Inc., priority 2018, dated 2023).

Columns and labels:
[1] = target: Human Axl (Homo sapiens (Human), UniProt P30530, Q764R); assay: Human AXL kinase assay (33P radiometric, KinaseProfiler); format: biochemical; conditions: 10 μM ATP
Procedure: (§1) Kinase activity and compound inhibition were investigated using the ^33P-Phosphoryl transfer radiometric kinase assay, performed using the KinaseProfiler™ service of Eurofins Pharma Discovery Services UK Limited. Dose-response experiments were performed using nine compound concentrations in a 96-well microtiter plate. For each assay, all compounds were prepared to a 50× final assay concentration (50 μM) in 100% DMSO, then diluted in a half-log series, with the final top concentration at 1 μM. This working stock of the compound was added to the assay well as the first component in the reaction, followed by the remaining components as detailed in the following assay protocols below. The positive control wells (100% kinase activity) contain all components of the reaction including 2% DMSO (control for solvent effects), except the compound of interest. Blank wells contain all components of the reaction, with the reference inhibitor, staurosporine. This reference compound was used to abolish kinase activity and generated the 0% kinase activity base-line. IC50 values were calculated by nonlinear regression analysis using the sigmoidal dose-response (variable slope) curve fit on XLFit version 5.3 (ID Business Solutions).
Human Axl (residues H473-A894 with Q764R, 161 nM) was incubated with 8 mM MOPS pH 7.0, 0.2 mM EDTA, 250 μM KKSRGDYMTMQIG (SEQ ID NO. 43), 10 mM magnesium acetate and 10 μM [γ-33P-ATP]. The reaction was initiated by the addition of the Mg/ATP mix. After incubation for 40 minutes at room temperature, the reaction was stopped by the addition of phosphoric acid to a concentration of 0.5%. A reaction aliquot of 10 μL was then spotted onto a P30 filtermat and washed four times for 4 minutes in 0.425% phosphoric acid and once in methanol prior to drying and scintillation counting. Incorporated ^33P was measured using the Wallac Microbeta scintillation counter (Perkin Elmer).

[2] = target: Mer (Homo sapiens (Human), UniProt Q12866); assay: Human Mer kinase assay (33P radiometric, KinaseProfiler); format: biochemical; conditions: 10 μM ATP
Procedure: as §1
Human Mer (residues R557-E882 with H628Q and R794A, 0.7 nM) was incubated with 8 mM MOPS pH 7.0, 0.2 mM EDTA, 30 mM NaCl, 250 μM GGMEDIYFEFMGGKKK (SEQ ID NO. 44), 10 mM magnesium acetate, and 10 μM [γ-33P-ATP]. The reaction was initiated by the addition of the Mg/ATP mix. After incubation for 40 minutes at room temperature, the reaction was stopped by the addition of phosphoric acid to a concentration of 0.5%. A reaction aliquot of 10 μL was then spotted onto a P30 filtermat and washed four times for 4 minutes in 0.425% phosphoric acid and once in methanol prior to drying and scintillation counting. Incorporated 33P was measured using the Wallac Microbeta scintillation counter (Perkin Elmer).

[3] = target: T1, Met (Homo sapiens (Human), UniProt P08581); assay: Human Met kinase assay (33P radiometric, KinaseProfiler); format: biochemical; conditions: 10 μM ATP, read-out: c-Met IC50
Procedure: as §1
Human Met (residues R974-S1390 with A1209G and V1290L, 3.4 nM) was incubated with 8 mM MOPS pH 7.0, 0.2 mM EDTA, 250 µM KKKGQEEEYVFIE (SEQ ID NO. 45), 1 mM sodium orthovanadate, 5 mM […], 10 mM magnesium acetate, and 10 μM [γ-33P-ATP]. The reaction was initiated by the addition of the Mg/ATP mix. After incubation for 40 minutes at room temperature, the reaction was stopped by the addition of phosphoric acid to a concentration of 0.5%. A reaction aliquot of 10 μL was then spotted onto a P30 filtermat and washed four times for 4 minutes in 0.425% phosphoric acid and once in methanol prior to drying and scintillation counting. Incorporated 33P was measured using the Wallac Microbeta scintillation counter (Perkin Elmer).

[4] = target: AXL (Homo sapiens (Human), UniProt P30530); assay: AXL autophosphorylation ELISA in A-172 cells; format: cell-based; conditions: cellular, Gas6-stimulated, phospho-AXL ELISA
Procedure: A-172 glioblastoma cells (ATCC #CRL-1620) were seeded at 2.5×10^5 cells/well onto 24-well plates (Greiner #662165), in DMEM (Thermo Fisher #11995-040) containing 10% FBS (Thermo Fisher #26140-079), 1% MEM NEAA (Thermo Fisher #11140-050), 1% GlutaMax (Thermo Fisher #35050-061), and 1% Penicillin Streptomycin (Thermo Fisher #15140-122). A-172 cells were incubated at 37° C., 5% CO2 for 24 h and then starved for 24 h in serum-free medium. Test compounds were serially diluted to produce an 8-point dose curve in fresh serum-free medium to a final concentration of 0.3% DMSO (vehicle) and added to the cells and incubated for 1 h. Cells were then stimulated with 1 μg/mL recombinant human Gas6 (R&D Systems #885-GSB-500) for 15 min, washed with cold PBS, and immediately lysed with 150 μL of cold IX lysis buffer [20 mM Tris, 137 mM sodium chloride, 2 mM EDTA, 10% glycerol, 1% NP-40 alternative, 1 mM activated sodium orthovanadate, 1 mM PefaBloc SC (Sigma-Aldrich #11429868001), protease/phosphatase inhibitor tablet (Thermo Fisher #A32959)]. Lysates were collected and 100 μL/well added into the human phospho-AXL Duo Set IC ELISA (R&D Systems #DYC2228-2). Assay was performed according to manufacturer's instructions and sample phospho-AXL concentrations were extrapolated using human phospho-AXL control (R&D Systems #841645) as a standard. Positive control wells (100% activity) contained Gas6-stimulated, DMSO-treated cell lysates. Negative control wells (0% activity) contained Gas6-stimulated, reference inhibitor-treated cell lysates. IC50 values were calculated by nonlinear regression analysis using a 4-parameter logistic curve fit in ActivityBase XL (IDBS).

[5] = target: T1, Met; assay: Met autophosphorylation ELISA in PC-3 cells; format: cell-based; conditions: cellular, HGF-stimulated, phospho-Met ELISA, read-out: c-Met IC50
Procedure: PC-3 prostate cancer cells (ATCC #CRL-1435) were seeded at 4×10^4 cells/well onto 24-well plates (Greiner #662165), in DMEM (Thermo Fisher #11995-040) containing 10% FBS (Thermo Fisher #26140-079), 1% MEM NEAA (Thermo Fisher #11140-050), 1% GlutaMax (Thermo Fisher #35050-061), and 1% Penicillin Streptomycin (Thermo Fisher #15140-122). PC-3 cells were incubated at 37° C., 5% CO2 for 24 h and then starved for 3 h in serum-free medium. Test compounds were serially diluted to produce an 8-point dose curve in fresh serum-free medium to a final concentration of 0.3% DMSO (vehicle) and added to the cells and incubated for 1 h. Cells were then stimulated with 100 ng/mL recombinant human HGF (R&D Systems #294-HG-250) for 10 min, washed with cold PBS, and immediately lysed with 130 μL of cold IX lysis buffer [20 mM Tris, 137 mM sodium chloride, 2 mM EDTA, 10% glycerol, 1% NP-40 alternative, 1 mM activated sodium orthovanadate, 1 mM PefaBloc SC (Sigma-Aldrich #11429868001), protease/phosphatase inhibitor tablet (Thermo Fisher #A32959)]. Lysates were clarified by centrifugation and 100 μL/well added into the PathScan phospho-Met (panTyr) Sandwich ELISA (Cell Signaling Technology #7333). Assay was performed according to manufacturer's instructions. Positive control wells (100% activity) contained HGF-stimulated, DMSO-treated cell lysates. Negative control wells (0% activity) contained HGF-stimulated, reference inhibitor-treated cell lysates. IC50 values were calculated by nonlinear regression analysis using a 4-parameter logistic curve fit in ActivityBase XL (IDBS).
Target sequence in this assay (P08581 25-1390): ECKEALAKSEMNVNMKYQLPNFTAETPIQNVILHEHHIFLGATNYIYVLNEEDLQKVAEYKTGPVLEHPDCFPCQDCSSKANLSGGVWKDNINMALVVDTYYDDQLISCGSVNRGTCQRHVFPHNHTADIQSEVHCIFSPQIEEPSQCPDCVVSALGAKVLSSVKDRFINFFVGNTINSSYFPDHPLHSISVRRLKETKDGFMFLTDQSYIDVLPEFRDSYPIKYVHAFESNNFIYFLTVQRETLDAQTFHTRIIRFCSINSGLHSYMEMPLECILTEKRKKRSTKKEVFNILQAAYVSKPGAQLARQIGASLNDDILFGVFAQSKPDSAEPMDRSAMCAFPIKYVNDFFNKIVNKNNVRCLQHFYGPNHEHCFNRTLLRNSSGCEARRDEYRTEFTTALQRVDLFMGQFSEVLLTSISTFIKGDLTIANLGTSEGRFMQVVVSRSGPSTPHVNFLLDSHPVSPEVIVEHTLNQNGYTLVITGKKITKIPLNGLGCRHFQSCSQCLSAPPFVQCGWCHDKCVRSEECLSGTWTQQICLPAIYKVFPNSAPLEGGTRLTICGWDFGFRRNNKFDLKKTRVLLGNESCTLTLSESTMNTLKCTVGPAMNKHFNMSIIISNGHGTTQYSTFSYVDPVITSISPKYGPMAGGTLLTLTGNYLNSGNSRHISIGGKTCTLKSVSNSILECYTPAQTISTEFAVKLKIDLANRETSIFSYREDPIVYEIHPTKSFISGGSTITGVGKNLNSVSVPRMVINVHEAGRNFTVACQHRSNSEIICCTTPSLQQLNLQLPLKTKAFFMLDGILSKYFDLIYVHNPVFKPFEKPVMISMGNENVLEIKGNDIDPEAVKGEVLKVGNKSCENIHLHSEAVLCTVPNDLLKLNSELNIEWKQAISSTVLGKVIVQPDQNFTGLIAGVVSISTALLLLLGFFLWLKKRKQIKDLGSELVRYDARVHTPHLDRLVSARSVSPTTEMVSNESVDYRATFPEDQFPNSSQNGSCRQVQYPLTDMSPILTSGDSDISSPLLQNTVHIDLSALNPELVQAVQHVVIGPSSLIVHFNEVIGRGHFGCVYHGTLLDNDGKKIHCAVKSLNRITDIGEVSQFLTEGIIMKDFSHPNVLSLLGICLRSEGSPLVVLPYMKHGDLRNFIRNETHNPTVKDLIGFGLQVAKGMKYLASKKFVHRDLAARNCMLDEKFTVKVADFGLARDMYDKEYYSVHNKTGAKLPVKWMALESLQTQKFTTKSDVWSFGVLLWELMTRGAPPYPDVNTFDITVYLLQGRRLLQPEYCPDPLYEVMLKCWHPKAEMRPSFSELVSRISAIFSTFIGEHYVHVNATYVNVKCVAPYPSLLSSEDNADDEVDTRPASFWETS

[6] = target: KDR (Homo sapiens (Human), UniProt P35968); assay: KDR autophosphorylation ELISA in HUVEC cells; format: cell-based; conditions: cellular, VEGF165-stimulated, phospho-KDR ELISA
Procedure: Human umbilical vein endothelial cells or HUVEC (Lonza #C2519A) were seeded at 2×10^4 cells/well onto 96-well plates (Corning #3904), in EGM-2 growth medium (Lonza #CC-3162) containing 1% Penicillin Streptomycin (Thermo Fisher #15140-122). HUVEC cells were incubated at 37° C., 5% CO2 for 24 h and then starved for 24 h in serum-free EBM-2 basal medium (Lonza #CC-3156) containing 1% Penicillin Streptomycin. Test compounds were serially diluted to produce an 8-point dose curve in fresh serum-free medium to a final concentration of 0.3% DMSO (vehicle) and added to the cells and incubated for 1 h. Cells were then stimulated with 100 ng/mL recombinant human VEGF165 (R&D Systems #293-VE-500) for 5 min, washed with cold PBS, and immediately lysed with 130 μL of cold 1× lysis buffer [20 mM Tris, 137 mM sodium chloride, 2 mM EDTA, 10% glycerol, 1% NP-40 alternative, 1 mM activated sodium orthovanadate, 1 mM PefaBloc SC (Sigma-Aldrich #11429868001), protease/phosphatase inhibitor tablet (Thermo Fisher #A32959)]. Lysates were collected and 100 μL/well added into the human phospho-KDR Duo Set IC ELISA (R&D Systems #DYC 1766-2). Assay was performed according to manufacturer's instructions and sample phospho-KDR concentrations were extrapolated using human phospho-KDR control (R&D Systems #841421) as a standard. Positive control wells (100% activity) contained VEGF165-stimulated, DMSO-treated cell lysates. Negative control wells (0% activity) contained non-stimulated cell lysates. IC50 values were calculated by nonlinear regression analysis using a 4-parameter logistic curve fit in ActivityBase XE (IDBS).

Chain of KDR (P35968 20-1356): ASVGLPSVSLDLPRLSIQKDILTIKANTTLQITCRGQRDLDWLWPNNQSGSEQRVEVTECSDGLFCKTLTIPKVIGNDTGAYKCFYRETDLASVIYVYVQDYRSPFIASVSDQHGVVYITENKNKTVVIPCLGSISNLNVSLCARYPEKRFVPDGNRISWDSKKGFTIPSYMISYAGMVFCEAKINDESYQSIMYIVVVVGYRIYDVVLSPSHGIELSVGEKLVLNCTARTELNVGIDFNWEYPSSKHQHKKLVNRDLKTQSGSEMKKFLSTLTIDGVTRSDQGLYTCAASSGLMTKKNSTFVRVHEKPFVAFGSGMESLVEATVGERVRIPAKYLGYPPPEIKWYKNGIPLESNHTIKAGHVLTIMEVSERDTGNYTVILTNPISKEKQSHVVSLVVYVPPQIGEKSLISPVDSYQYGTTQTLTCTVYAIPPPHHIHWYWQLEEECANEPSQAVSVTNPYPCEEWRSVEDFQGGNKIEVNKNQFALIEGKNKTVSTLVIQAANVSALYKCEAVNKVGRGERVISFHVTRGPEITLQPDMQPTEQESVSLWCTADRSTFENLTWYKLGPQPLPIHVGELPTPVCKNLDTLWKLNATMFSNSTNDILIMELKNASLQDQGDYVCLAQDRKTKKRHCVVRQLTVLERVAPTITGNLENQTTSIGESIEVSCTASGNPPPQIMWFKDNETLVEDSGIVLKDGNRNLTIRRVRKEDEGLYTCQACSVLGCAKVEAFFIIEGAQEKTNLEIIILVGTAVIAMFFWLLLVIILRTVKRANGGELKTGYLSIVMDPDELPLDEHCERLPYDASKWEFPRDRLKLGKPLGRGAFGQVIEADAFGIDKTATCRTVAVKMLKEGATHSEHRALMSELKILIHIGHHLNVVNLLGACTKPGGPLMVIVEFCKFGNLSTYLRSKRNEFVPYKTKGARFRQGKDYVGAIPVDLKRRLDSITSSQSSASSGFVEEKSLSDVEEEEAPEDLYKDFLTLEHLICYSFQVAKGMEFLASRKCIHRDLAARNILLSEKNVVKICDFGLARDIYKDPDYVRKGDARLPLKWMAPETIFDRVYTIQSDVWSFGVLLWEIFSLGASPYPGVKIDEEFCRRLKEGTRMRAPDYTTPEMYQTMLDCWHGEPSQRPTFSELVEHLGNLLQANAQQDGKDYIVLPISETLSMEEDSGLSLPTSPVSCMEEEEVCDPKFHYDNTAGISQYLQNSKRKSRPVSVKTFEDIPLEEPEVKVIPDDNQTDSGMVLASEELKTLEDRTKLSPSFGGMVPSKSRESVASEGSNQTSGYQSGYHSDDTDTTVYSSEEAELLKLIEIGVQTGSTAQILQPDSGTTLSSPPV
Chain of Human Axl (P30530 473-894 Q764R): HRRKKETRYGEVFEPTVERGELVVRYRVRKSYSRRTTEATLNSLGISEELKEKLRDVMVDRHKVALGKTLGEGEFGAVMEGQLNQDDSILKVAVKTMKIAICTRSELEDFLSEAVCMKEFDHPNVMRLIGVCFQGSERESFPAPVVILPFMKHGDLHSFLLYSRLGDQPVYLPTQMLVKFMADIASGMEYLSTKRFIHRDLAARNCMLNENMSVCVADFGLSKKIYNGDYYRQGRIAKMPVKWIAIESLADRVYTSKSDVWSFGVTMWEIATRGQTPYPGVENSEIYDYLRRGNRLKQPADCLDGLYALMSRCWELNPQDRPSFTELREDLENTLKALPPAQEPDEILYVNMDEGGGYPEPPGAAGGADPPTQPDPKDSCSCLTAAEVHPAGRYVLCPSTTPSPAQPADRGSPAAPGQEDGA
Chain of AXL (P30530 26-894): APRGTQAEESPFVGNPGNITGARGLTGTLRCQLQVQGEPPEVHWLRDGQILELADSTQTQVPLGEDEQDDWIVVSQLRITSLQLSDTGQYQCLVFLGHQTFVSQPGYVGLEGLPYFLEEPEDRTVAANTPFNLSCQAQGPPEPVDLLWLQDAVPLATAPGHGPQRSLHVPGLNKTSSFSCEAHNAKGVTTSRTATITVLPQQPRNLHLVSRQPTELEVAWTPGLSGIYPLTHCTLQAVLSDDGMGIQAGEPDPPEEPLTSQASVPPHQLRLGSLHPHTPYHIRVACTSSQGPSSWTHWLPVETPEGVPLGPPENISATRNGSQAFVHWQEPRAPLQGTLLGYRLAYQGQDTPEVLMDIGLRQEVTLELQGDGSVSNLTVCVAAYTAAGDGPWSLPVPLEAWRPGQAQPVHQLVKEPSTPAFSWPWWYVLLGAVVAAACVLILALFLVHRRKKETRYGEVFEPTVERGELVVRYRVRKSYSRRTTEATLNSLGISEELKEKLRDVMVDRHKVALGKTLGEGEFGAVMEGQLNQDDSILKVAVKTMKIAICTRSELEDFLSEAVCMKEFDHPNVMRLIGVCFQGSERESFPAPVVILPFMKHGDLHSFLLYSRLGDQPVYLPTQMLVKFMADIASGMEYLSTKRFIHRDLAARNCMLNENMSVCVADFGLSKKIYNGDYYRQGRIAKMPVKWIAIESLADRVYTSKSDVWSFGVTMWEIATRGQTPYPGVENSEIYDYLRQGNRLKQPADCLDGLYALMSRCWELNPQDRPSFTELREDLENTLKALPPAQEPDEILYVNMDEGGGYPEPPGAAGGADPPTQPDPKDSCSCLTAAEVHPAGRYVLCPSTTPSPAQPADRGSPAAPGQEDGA
Chain of Mer (Q12866 557-882): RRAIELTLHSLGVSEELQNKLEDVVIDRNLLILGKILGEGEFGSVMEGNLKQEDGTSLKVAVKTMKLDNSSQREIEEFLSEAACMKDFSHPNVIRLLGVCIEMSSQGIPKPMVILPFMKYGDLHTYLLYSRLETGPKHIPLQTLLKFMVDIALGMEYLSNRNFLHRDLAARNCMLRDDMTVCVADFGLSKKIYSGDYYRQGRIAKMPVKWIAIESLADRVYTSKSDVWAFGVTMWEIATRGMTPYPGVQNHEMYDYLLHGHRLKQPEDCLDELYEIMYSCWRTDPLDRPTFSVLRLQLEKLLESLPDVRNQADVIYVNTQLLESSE

SMILES	IC50 [1] [nM]	IC50 [2] [nM]	IC50 [3] [nM]	IC50 [4] [nM]	IC50 [5] [nM]	IC50 [6] [nM]
O=C(Nc1ccc(F)cc1)C1(C(=O)Nc2ccc(Oc3ncnc4cc(Br)cnc34)cc2)CC1 [Compound 13, 1-N-[4-(7-bromopyrido[3,2-d]pyrimidin-4-yl)oxyphenyl]-1-N′-(4-fluorophenyl)cyclo-propane-1,1-dicarboxamide]	100 to 1000	100 to 1000	100 to 1000	–	–	–
O=C(Nc1ccc(F)cc1)C1(C(=O)Nc2ccc(Oc3ncnc4cnc(Cl)cc34)cc2)CC1 [Compound 88, 1-N-[4-(6-chloropyrido[3,4-d]pyrimidin-4-yl)oxy-phenyl]-1-N′-(4-fluoro-phenyl)cyclopropane-1,1-dicarboxamide]	100 to 1000	100 to 1000	> 1000	–	–	–
COc1cnc2c(Oc3ccc(NC(=O)C4(C(=O)Nc5ccc(F)cc5)CC4)cc3)ncnc2c1 [Compound 16, 1-N′-(4-fluorophenyl)-1-N-[4-(7-methoxy-pyrido[3,2-d]pyrimidin-4-yl)oxyphenyl]cyclo-propane-1,1-dicarboxamide]	100 to 1000	100 to 1000	10 to 100	–	–	–
CNC(=O)c1nc2c(Oc3ccc(NC(=O)C4(C(=O)Nc5ccc(F)cc5)CC4)cc3)ccnc2cc1OC [Compound 172, 1-N′-(4-fluorophenyl)-1-N-[4-[[7-methoxy-6-(methyl-carbamoyl)-1,5-naphthyridin-4-yl]oxy]phenyl]cyclo-propane-1,1-dicarboxamide]	–	–	–	100 to 300	> 300	> 300
COc1cc2ncnc(Oc3ccc(NC(=O)C4(C(=O)Nc5ccc(F)cc5)CC4)c(Cl)c3)c2nc1OC [Compound 32, 1-N′-[2-chloro-4-(6,7-dimethoxypyrido[3,2-d]pyrimidin-4-yl)oxyphenyl]-1-N-(4-fluorophenyl)cyclo-propane-1,1-dicarboxamide]	–	–	–	10 to 100	100 to 300	100 to 300
COc1cc2nccc(Oc3ccc(NC(=O)C4(C(=O)Nc5ccc(F)cc5)CC4)cc3F)c2nc1C(N)=O [Compound 168, 1-N′-[4-[(6-carbamoyl-7-methoxy-1,5-naphthyridin-4-yl)oxy]-3-fluoro-phenyl]-1-N-(4-fluorophenyl)cyclopropane-1,1-dicarboxamide]	–	–	–	> 300	100 to 300	> 300
Cn1cc(-c2ccc3ncnc(Oc4ccc(NC(=O)C5(C(=O)Nc6ccc(F)cc6)CC5)cc4)c3c2)cn1 [Compound 126, 1-N′-(4-fluorophenyl)-1-N-[4-[6-(1-methylpyrazol-4-yl)quinazolin-4-yl]oxyphenyl]cyclo-propane-1,1-dicarboxamide]	–	–	–	100 to 300	> 300	> 300
COc1cc2nccc(Oc3ccc(NC(=O)C4(C(=O)Nc5ccc(F)cc5)CC4)cc3)c2nc1C#N [Compound 164, 1-N-[4-[(6-cyano-7-methoxy-1,5-naphthyridin-4-yl)oxy]phenyl]-1-N′-(4-fluoro-phenyl)cyclopropane-1,1-dicarboxamide]	–	–	–	100 to 300	> 300	100 to 300
COc1cc2nccc(Oc3ccc(NC(=O)C4(C(=O)Nc5ccc(F)cc5)CC4)cc3)c2nc1-c1cn[nH]c1 [Compound 183, 1-N′-(4-fluorophenyl)-1-N-[4-[[7-methoxy-6-(1H-pyrazol-4-yl)-1,5-naphthyridin-4-yl]oxy]phenyl]cyclopropane-1,1-dicarboxamide]	–	–	–	> 300	> 300	> 300
O=C(Nc1ccc(F)cc1)C1(C(=O)Nc2ccc(Oc3ccnc4cc5c(nc34)OCCO5)c(Cl)c2)CC1 [Compound 159, 1-N′-[3-chloro-4-(2,3-dihydro-[1,4]dioxino[2,3-b][1,5]naphthyridin-6-yloxy)phenyl]-1-N-(4-fluorophenyl)cyclopropane-1,1-dicarboxamide]	–	–	–	> 300	100 to 300	> 300
